This is an account of results in PMC6405930, “Conservation of the Amyloid Interactome Across Diverse Fibrillar Structures” (Scientific Reports, 2019).

The test system of test [1] is T1, Ab1 fibrils.
T1 construct: Synthetic amyloid β peptide 1–40 was purchased from Caslo Aps (Lyngby, Denmark); purchased Caslo Aps (Lyngby, Denmark); host or cells: synthetic peptide
The experiment in a line: Fibril incubation with plasma, quantitative MS/MS of bound proteins. It counts as binding, human. To be noted: 50:1 w/w plasma protein:fibril. As to the method: (§1) Plasma and CSF solutions were centrifuged (40,000 g, 20 min) to remove any aggregates. The protein concentration was determined using 280 nm absorbance assuming 1 Abs = 1 mg/mL. Samples with fibril material (20 μg), plasma (500 μg) or CSF (40 μg) proteins were prepared in 200 μL PBS buffer with 5 mM EDTA. Control samples (without fibril material) were prepared similarly. All samples were incubated at room temperature for one hour under gentle agitation. Fibrils and fibril-bound proteins were pelleted by centrifugation at 17,000 g for 30 minutes. The supernatant (175 μL) was removed and the aggregate was re-suspended in 175 μL PBS and pelleted again before further preparation for gel analysis and spin-filter assisted digest for quantitative MS/MS.
(§2) The fibril-protein pellets were transferred to spin-filters (0.22 μm), washed twice in PBS (100 μL) and once in 1 M NaCl (100 μL). The fibrils and fibril-bound proteins were dissolved by one-hour incubation in 100 μL 6 M guanidinium chloride followed by elution from the spin-filter. The eluted proteins were loaded onto a 3 kDa MWCO filter unit for filter-assisted unfolding, reduction, alkylation, and trypsin digestion. In brief, samples were washed twice in 8 M urea, once in 8 M urea with 50 mM DTT, once in 8 M urea with 50 mM iodoaceteamide, and twice in 8 M Urea. The filter units were dried by centrifugation (14,000 g in 30 minutes) after every addition. Trypsin digestion was carried out with 0.25 μg sequencing grade trypsin from Sigma Aldrich in 50 mM ammonium bicarbonate overnight at 37 °C. The tryptic peptides were collected by centrifugation, acidified with TFA (0.1%) and micro-purified using POROS R2 column material (Applied Biosystems) packed in P200 pipette tips (Sarstedt).
(§3) LC-MS/MS analyses were performed on an EASY-nLC II system (Thermo Fisher Scientific) connected to a TripleTOF 5600+ mass spectrometer (Sciex) equipped with a NanoSpray III source (Sciex) and operated under Analyst TF 1.6.0 control.
(§4) The micro-purified tryptic peptides were dissolved in 0.1% formic acid, injected and trapped on an in-house packed trap column (2 cm × 100 μm I.D) with RP ReproSil-Pur C18-AQ 3 μm resin (Dr. Maisch GmbH). Peptides were eluted from the trap column and separated on a 15 cm analytical column (75 μm i.d.) packed in-house in a pulled emitter with RP ReproSil-Pur C18-AQ 3 μm resin (Dr. Maisch GmbH). Elution from the analytical column was performed with a linear gradient from 5% to 35% phase B (90% acetonitrile with 0.1% formic acid) over 20 min for protein identification and 50 min for quantitative analysis, respectively.
(§5) All samples were analysed three times, yielding nine MS/MS experiments for each fibril for both plasma and CSF. For the area-based extracted ion chromatogram (XIC) quantification, the acquisition method was set up as an information-dependent acquisition (IDA) experiment collecting up to 25 MS/MS spectra in each 1.6 sec cycle using an exclusion window of 6 sec.
(§6) XIC quantification was based on the average ion intensity of the three most abundant peptides for each protein. Only proteins quantified in at least four out of nine MS/MS experiments per fibril were included in the quantification. The total ion scores were visualized after grouping the proteins according to function (Figure S11).
(§7) For each MS/MS experiment, the ion intensities of the individual proteins were normalized to the total ion intensity of that MS/MS experiment to achieve a relative protein composition. The contribution of each protein was averaged over all nine MS/MS experiments (Tables 1 and 2).

The test system of test [2] is T2, Ab2 fibrils.
T2 construct: Two structurally distinct fibrils of the Aβ(1–40) peptide associated with AD
The description is as above. Format: binding, human. The following applies: 50:1 w/w plasma protein:fibril. The method, then: as §1, with “Samples with fibril material (20 μg), plasma (500 μg) or CSF (40 μg) proteins were prepared in 200 μL PBS buffer with 5 mM EDTA.” left out
as §2, §3, §4, §5, §6, §7

For test [3], the target named is T3, glucagon fibrils (Homo sapiens, UniProt P01275).
T3 construct: fibrils of the peptide hormone glucagon
T3 sequence (P01275 53-81 limits assumed): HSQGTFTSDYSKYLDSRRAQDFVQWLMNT
The description is as above. Format: binding. The following applies: 50:1 w/w plasma protein:fibril. The method, then: as §1, with “Samples with fibril material (20 μg), plasma (500 μg) or CSF (40 μg) proteins were prepared in 200 μL PBS buffer with 5 mM EDTA.” left out
as §2, §3, §4, §5, §6, §7

Test [4] deals with T4, C-36 fibrils (Homo sapiens, UniProt P01009).
T4 construct: the 36 residue C-terminal fragment of α1-antitrypsin (C-36)
T4 sequence (P01009 383-418 limits assumed): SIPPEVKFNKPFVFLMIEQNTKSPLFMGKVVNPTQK
Described as above. Format: binding. The arrangement: key to Identification status of plasma protein bound: C-36: *: Identified, but not quantified; —: Not identified in any of the samples. To be noted: for Relative composition of plasma proteins bound: C-36: 50:1 w/w plasma protein:fibril. As to the method: as §1, with “Samples with fibril material (20 μg), plasma (500 μg) or CSF (40 μg) proteins were prepared in 200 μL PBS buffer with 5 mM EDTA.” left out
as §2, §3, §4, §5, §6, §7

For test [5], the target named is T5, αSN fibrils (Homo sapiens, UniProt P37840). Described as above. The following applies: for Identification status of plasma protein bound: αSN: symbol cells. Further details: key to Identification status of plasma protein bound: αSN: *: Identified, but not quantified; —: Not identified in any of the samples. Format: binding. As to the method:
as §1, with “Samples with fibril material (20 μg), plasma (500 μg) or CSF (40 μg) proteins were prepared in 200 μL PBS buffer with 5 mM EDTA.” left out
as §2, §3, §4, §5, §6, §7

In test [6] the test system is T6, FAS4-AD aggregates.
T6 construct: aggregates of a mutated version of the FAS1-4 domain of TGFBIp
The description is as above. It counts as binding, human. Further details: key to Identification status of plasma protein bound: FAS4-AD: *: Identified, but not quantified; —: Not identified in any of the samples. The following applies: for Relative composition of plasma proteins bound: FAS4-AD: 50:1 w/w plasma protein:fibril. The method, then: as §1, with “Samples with fibril material (20 μg), plasma (500 μg) or CSF (40 μg) proteins were prepared in 200 μL PBS buffer with 5 mM EDTA.” left out
as §2, §3, §4, §5, §6, §7

For test [7], the system named is T1, Ab1 fibrils. The experiment in a line: Fibril incubation with CSF, quantitative MS/MS of bound proteins. It counts as binding, human. The following applies: 4:1 w/w CSF protein:fibril. As to the method:
as §1, with “Samples with fibril material (20 μg), plasma (500 μg) or CSF (40 μg) proteins were prepared in 200 μL PBS buffer with 5 mM EDTA.” left out
as §2, §3, §4, §5, §6, §7

Test [8] deals with T2, Ab2 fibrils. The description is as above. Format: binding, human. The arrangement: key to Identification status of CSF protein bound: Ab2: *: Identified, but not quantified; —: Not identified in any of the samples. The following applies: for Relative composition of CSF proteins bound: Ab2: 4:1 w/w CSF protein:fibril. The method, then: as §1, with “Samples with fibril material (20 μg), plasma (500 μg) or CSF (40 μg) proteins were prepared in 200 μL PBS buffer with 5 mM EDTA.” left out
as §2, §3, §4, §5, §6, §7

For test [9], the target named is T3, glucagon fibrils. The test is described as above. Format: binding. The following applies: 4:1 w/w CSF protein:fibril. The method, then:
as §1, with “Samples with fibril material (20 μg), plasma (500 μg) or CSF (40 μg) proteins were prepared in 200 μL PBS buffer with 5 mM EDTA.” left out
as §2, §3, §4, §5, §6, §7

Test [10] addresses T4, C-36 fibrils. The description is as above. Further details: key to Identification status of CSF protein bound: C-36: *: Identified, but not quantified; —: Not identified in any of the samples. Format: binding. The following applies: for Identification status of CSF protein bound: C-36: symbol cells. As to the method:
as §1, with “Samples with fibril material (20 μg), plasma (500 μg) or CSF (40 μg) proteins were prepared in 200 μL PBS buffer with 5 mM EDTA.” left out
as §2, §3, §4, §5, §6, §7

The target of test [11] is T5, αSN fibrils. Described as above. It counts as binding. Further details: key to Identification status of CSF protein bound: αSN: *: Identified, but not quantified; —: Not identified in any of the samples. The following applies: for Identification status of CSF protein bound: αSN: symbol cells. As to the method: as §1, with “Samples with fibril material (20 μg), plasma (500 μg) or CSF (40 μg) proteins were prepared in 200 μL PBS buffer with 5 mM EDTA.” left out
as §2, §3, §4, §5, §6, §7

Test [12] relates to T6, FAS4-AD aggregates. Described as above. The following applies: symbol cells. Further details: key to Identification status of CSF protein bound: FAS4-AD: *: Identified, but not quantified; —: Not identified in any of the samples. It counts as binding, human. As to the method: as §1, with “Samples with fibril material (20 μg), plasma (500 μg) or CSF (40 μg) proteins were prepared in 200 μL PBS buffer with 5 mM EDTA.” left out
as §2, §3, §4, §5, §6, §7

Take “Complement C3: plasma/CSF protein bound to fibrils”: the “Relative composition of plasma proteins bound: Ab1” value with Ab1 fibrils [1] was 0.4 ± 0.0 % of total protein. Moreover, in the test with Ab2 fibrils [2], the “Relative composition of plasma proteins bound: Ab2” value is 0.6 ± 0.1 % of total protein. In the test with glucagon fibrils [3], the “Relative composition of plasma proteins bound: Glucagon” value is 2.3 ± 0.2 % of total protein. In the test with C-36 fibrils [4], the “Relative composition of plasma proteins bound: C-36” value is 0.2 ± 0.0 % of total protein. For the same substance, the “Identification status of plasma protein bound: αSN” value with αSN fibrils [5] is “*”. Besides, the “Identification status of plasma protein bound: FAS4-AD” value in the test with FAS4-AD aggregates [6] (symbol cells) is on record as “*”. Further, the “Relative composition of CSF proteins bound: Ab1” value in the test with Ab1 fibrils [7] is given as 0.3 ± 0.1 % of total protein. The “Relative composition of CSF proteins bound: Ab2” value in the test on Ab2 fibrils [8] is given as 0.3 ± 0.1 % of total protein. The “Relative composition of CSF proteins bound: Glucagon” value with glucagon fibrils [9] is on record as 0.8 ± 0.2 % of total protein. For the same substance, the “Identification status of CSF protein bound: C-36” value with C-36 fibrils [10] was “*”. Also, the “Identification status of CSF protein bound: αSN” value with αSN fibrils [11] is “—”. In addition, the “Identification status of CSF protein bound: FAS4-AD” value with FAS4-AD aggregates [12] is recorded as “—”.
On to “Ig γ-1 chain C region: plasma/CSF protein bound to fibrils”, for which the “Relative composition of plasma proteins bound: Ab1” value in the test with Ab1 fibrils [1] was 1.1 ± 0.1 % of total protein. Besides, in the test on Ab2 fibrils [2], the “Relative composition of plasma proteins bound: Ab2” value is recorded as 1.2 ± 0.1 % of total protein. The “Relative composition of plasma proteins bound: Glucagon” value with glucagon fibrils [3] is recorded as 1.2 ± 0.2 % of total protein. Also, in the test with C-36 fibrils [4], the “Relative composition of plasma proteins bound: C-36” value is given as 1.9 ± 0.2 % of total protein. Also, the “Relative composition of plasma proteins bound: αSN” value with αSN fibrils [5] (50:1 w/w plasma protein:fibril) is given as 1.9 ± 0.9 % of total protein. Further, the “Relative composition of plasma proteins bound: FAS4-AD” value with FAS4-AD aggregates [6] is given as 9.5 ± 2.6 % of total protein. Besides, the “Relative composition of CSF proteins bound: Ab1” value in the test with Ab1 fibrils [7] was 2.5 ± 0.1 % of total protein. Besides, in the test with Ab2 fibrils [8], the “Relative composition of CSF proteins bound: Ab2” value is reported as 3.1 ± 0.3 % of total protein. In addition, the “Relative composition of CSF proteins bound: Glucagon” value in the test with glucagon fibrils [9] is 1.4 ± 0.5 % of total protein. Besides, the “Relative composition of CSF proteins bound: C-36” value with C-36 fibrils [10] (4:1 w/w CSF protein:fibril) is 1.4 ± 0.2 % of total protein. In addition, the “Relative composition of CSF proteins bound: αSN” value in the test with αSN fibrils [11] (4:1 w/w CSF protein:fibril) is recorded as 4.2 ± 0.4 % of total protein. Also, the “Identification status of CSF protein bound: FAS4-AD” value in the test on FAS4-AD aggregates [12] is recorded as “*”.
On to “α1-antitrypsin: plasma/CSF protein bound to fibrils”, for which the “Relative composition of plasma proteins bound: Ab1” value in the test with Ab1 fibrils [1] is reported as 0.4 ± 0.0 % of total protein. In addition, the “Relative composition of plasma proteins bound: Ab2” value with Ab2 fibrils [2] is 0.4±0.0 % of total protein. Further, in the test with glucagon fibrils [3], the “Relative composition of plasma proteins bound: Glucagon” value is recorded as 0.6 ± 0.0 % of total protein. The “Identification status of plasma protein bound: C-36” value with C-36 fibrils [4] (symbol cells) is listed as “*”. Besides, the “Identification status of plasma protein bound: αSN” value in the test with αSN fibrils [5] is “*”. Also, in the test on FAS4-AD aggregates [6], the “Relative composition of plasma proteins bound: FAS4-AD” value is 1.4 ± 0.5 % of total protein. In addition, the “Relative composition of CSF proteins bound: Ab1” value with Ab1 fibrils [7] is 0.5 ± 0.2 % of total protein. Further, the “Identification status of CSF protein bound: Ab2” value in the test with Ab2 fibrils [8] (symbol cells) is recorded as “*”. In addition, in the test with glucagon fibrils [9], the “Relative composition of CSF proteins bound: Glucagon” value is listed as 1.0 ± 0.2 % of total protein. In addition, in the test with C-36 fibrils [10], the “Identification status of CSF protein bound: C-36” value is recorded as “*”. In addition, the “Identification status of CSF protein bound: αSN” value in the test with αSN fibrils [11] is reported as “*”. Further, the “Identification status of CSF protein bound: FAS4-AD” value in the test on FAS4-AD aggregates [12] is on record as “*”.
